Results taken from US5424309A, “N-substituted acylamino acid compounds, process for their production and their use” (Banyu Pharmaceutical Co., Ltd., priority 1988, dated 1995).

The molecules below were run against T1, human plasma renin (Homo sapiens, UniProt P00797) (assay: Renin inhibiting activities (human plasma, angiotensin I by radio immunoassay)). Conditions: pH7.4, 37° C., one hour, read-out: IC50 (50 % inhibition concentrations), renin inhibiting activity.
T1 construct: from tissue; host or cells: human plasma
T1 sequence (P00797 67-406): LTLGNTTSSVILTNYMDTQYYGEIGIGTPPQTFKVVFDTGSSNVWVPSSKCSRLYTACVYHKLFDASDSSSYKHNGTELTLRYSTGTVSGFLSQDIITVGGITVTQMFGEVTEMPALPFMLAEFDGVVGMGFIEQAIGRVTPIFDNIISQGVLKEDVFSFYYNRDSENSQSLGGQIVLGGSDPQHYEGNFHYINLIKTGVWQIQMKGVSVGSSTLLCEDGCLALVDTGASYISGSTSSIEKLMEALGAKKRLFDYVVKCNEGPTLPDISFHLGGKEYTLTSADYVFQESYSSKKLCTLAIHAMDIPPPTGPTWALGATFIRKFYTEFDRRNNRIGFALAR
Assay type: biochemical
Method: To 156 μl of a 0.2M sodium phosphate buffer solution (pH7.4), 40 μl of a solution mixture of 34 mM 8-hydroxyquinoline and 100 mM disodium ethylenediamine tetraacetate, 4 μl of dimethyl sulfoxide or a dimethyl sulfoxide solution of test compound and 200 μl of human plasma were added and reacted at 37° C. for one hour. Then, pepstatin was added thereto to terminate the reaction, and the amount of the resulting angiotension I was measured by radio immunoassay whereby the inhibiting activity was determined.

**Q.** Which IC50 does the source give for CCCC[C@H](NC(=O)[C@H](Cc1cccc2ccccc12)CS(=O)(=O)CC(O)COC(=O)C(C)(C)C)C(=O)N[C@@H](CC1CCCCC1)[C@@H](O)[C@@H](O)CN1CCOCC1 (mixture of isomers) [Example 2, (2S,3R,4S)-4-{L-N-[(2S)-3-[(2RS)-3-pivaloyloxy-2-hydroxypropyl]sulfonyl-2-(1-naphthylmethyl)propionyl]norleucyl}amino-5-cyclohexyl-1-morpholino-2,3-pentanediol] here?
**A.** 7.2 nM

**Q.** How did the IC50 turn out when CC(=O)OCC(CS(=O)(=O)C[C@@H](Cc1cccc2ccccc12)C(=O)N[C@@H](Cc1c[nH]cn1)C(=O)N[C@@H](CC1CCCCC1)[C@@H](O)[C@@H](O)CN1CCOCC1)OC(C)=O (some centres unmarked) [Example 23] was run?
**A.** 4.8 nM

**Q.** For CCCC[C@H](NC(=O)[C@H](Cc1cccc2ccccc12)CS(=O)(=O)CC(COC(C)=O)=NOC)C(=O)N[C@@H](CC1CCCCC1)[C@@H](O)[C@@H](O)CN1CCOCC1 [Example 41, (2S,3R,4S)-4-{L-N-[(2S)-3-(3-acetoxy-2-methoxyiminopropyl)sulfonyl-2-(1-naphthylmethyl)propionyl]norleucyl}amino-5-cyclohexyl-1-morpholino-2,3-pentanediol], which IC50 is on record?
**A.** 0.79 nM

**Q.** With CCCC[C@H](NC(=O)[C@H](Cc1cccc2ccccc12)CS(=O)(=O)CC(COC(C)=O)OC)C(=O)N[C@@H](CC1CCCCC1)[C@@H](O)[C@@H](O)CN1CCOCC1 (single isomer, unassigned) [Example 39] as the molecule, how does the IC50 read?
**A.** 1.3 nM

**Q.** CCCC[C@H](NC(=O)[C@@H](CSCC(COC(C)=O)OC(C)=O)Cc1ccccc1)C(=O)N[C@@H](CC1CCCCC1)[C@@H](O)[C@@H](O)CN1CCOCC1 (mixture of isomers) [Example 16, (2S,3R,4S)-4-{L-N-[(2S)-3-[(2RS)-2,3-diacetoxypropyl]thio-2-benzylpropionyl]norleucyl}amino-5-cyclohexyl-1-morpholino-2,3-pentanediol] was tested. Which IC50 did it give?
**A.** 6 nM

**Q.** Which IC50 does the source give for CCCC[C@H](NC(=O)[C@H](Cc1cccc2ccccc12)CS(=O)(=O)CC(COC(=O)CC)OC(C)=O)C(=O)N[C@@H](CC1CCCCC1)[C@@H](O)[C@@H](O)CN1CCOCC1 (mixture of isomers) [Example 13, (2S,3R,4S)-4-{L-N-[(2S)-3-[(2RS)-2-acetoxy-3-propionyloxypropyl]sulfonyl-2-(1-naphthylmethyl)propionyl]norleucyl}amino-5-cyclohexyl-1-morpholino-2,3-pentanediol] here?
**A.** 2 nM

**Q.** With CCCC[C@H](NC(=O)[C@H](Cc1cccc2ccccc12)CS(=O)(=O)CC(COC(C)=O)OCC)C(=O)N[C@@H](CC1CCCCC1)[C@@H](O)[C@@H](O)CN1CCOCC1 (mixture of isomers) [Example 43, (2S,3R,4S)-4-{L-N-[(2S)-3-[(2RS)-3-acetoxy-2-ethoxypropyl]sulfonyl-2-(1-naphthylmethyl)propionyl]norleucyl}amino-5-cyclohexyl-1-morpholino-2,3-pentanediol] as the molecule, how does the IC50 read?
**A.** 2.4 nM

**Q.** CCCC[C@H](NC(=O)[C@@H](CSC1CCC(OC(C)=O)C1)Cc1cccc2ccccc12)C(=O)N[C@@H](CC1CCCCC1)[C@@H](O)[C@@H](O)CN1CCOCC1 (stereo partly drawn) [Example 34, (2S,3R,4S)-4-{L-N-[(2S)-3-(3-acetoxycyclopentyl)thio-2-(1-naphthylmethyl)propionyl]norleucyl}amino-5-cyclohexyl-1-morpholino-2,3-pentanediol] was tested. Which IC50 did it give?
**A.** 5.6 nM

**Q.** For CC(=O)OCCS(=O)(=O)C[C@@H](Cc1cccc2ccccc12)C(=O)N[C@@H](Cc1c[nH]cn1)C(=O)N[C@@H](CC1CCCCC1)[C@@H](O)[C@@H](O)CN1CCOCC1 [Example 30], which IC50 is on record?
**A.** 1.9 nM

**Q.** CCCC[C@H](NC(=O)[C@H](Cc1ccccc1)CS(=O)(=O)CC(COC(=O)CC)OC(=O)CC)C(=O)N[C@@H](CC1CCCCC1)[C@@H](O)[C@@H](O)CN1CCOCC1 (mixture of isomers) [Example 17, (2S,3R,4S)-4-{L-N-[(2S)-3-[(2RS)-2,3-dipropionyloxypropyl]sulfonyl-2-benzylpropionyl]norleucyl}amino-5-cyclohexyl-1-morpholino-2,3-pentanediol] was tested. Which IC50 did it give?
**A.** 8.3 nM

**Q.** Which IC50 does the source give for CCCC[C@H](NC(=O)[C@H](Cc1ccccc1)CS(=O)(=O)CC(COC(C)=O)OC(C)=O)C(=O)N[C@@H](CC1CCCCC1)[C@@H](O)[C@@H](O)CN1CCOCC1 (mixture of isomers) [Example 15, (2S,3R,4S)-4-{L-N-[(2S)-3-[(2RS)-2,3-diacetoxypropyl]sulfonyl-2-benzylpropionyl]norleucyl}amino-5-cyclohexyl-1-morpholino-2,3-pentanediol] here?
**A.** 7.3 nM

**Q.** How did the IC50 turn out when CCCC[C@H](NC(=O)[C@H](Cc1cccc2ccccc12)CS(=O)(=O)C1CCCC1OC(C)=O)C(=O)N[C@@H](CC1CCCCC1)[C@@H](O)[C@@H](O)CN1CCOCC1 (stereo partly drawn) [Example 35, (2S,3R,4S)-4-{L-N-[(2S)-3-(2-acetoxycyclopentyl)sulfonyl-2-(1-naphthylmethyl)propionyl]norleucyl}amino-5-cyclohexyl-1-morpholino-2,3-pentanediol] was run?
**A.** 3.1 nM

**Q.** With CCCC[C@H](NC(=O)[C@H](Cc1cccc2ccccc12)CS(=O)(=O)C1C(OC(C)=O)CCC1OC(C)=O)C(=O)N[C@@H](CC1CCCCC1)[C@@H](O)[C@@H](O)CN1CCOCC1 (stereo partly drawn) [Example 37, (2S,3R,4S)-4-{L-N-[(2S)-3-(2,5-diacetoxycyclopentyl)sulfonyl-2-(1-naphthylmethyl)propionyl]norleucyl}amino-5-cyclohexyl-1-morpholino-2,3-pentanediol] as the molecule, how does the IC50 read?
**A.** 2.9 nM

**Q.** Which IC50 does the source give for CCCC[C@H](NC(=O)[C@H](Cc1cccc2ccccc12)C[S+]([O-])CC(COC(C)=O)OC(C)=O)C(=O)N[C@@H](CC1CCCCC1)[C@@H](O)[C@@H](O)CN1CCOCC1 (mixture of isomers) [Example 6 (having a high Rf value), (2S,3R,4S)-4-{L-N-[(2S)-3-[(2RS)-2,3-diacetoxypropyl]sulfinyl-2-(1-naphthylmethyl)propionyl]norleucyl}amino-5-cyclohexyl-1-morpholino-2,3-pentanediol] here?
**A.** 6 nM

**Q.** For COC(COC(C)=O)CS(=O)(=O)C[C@@H](Cc1cccc2ccccc12)C(=O)N[C@@H](Cc1cscn1)C(=O)N[C@@H](CC1CCCCC1)[C@@H](O)[C@@H](O)CN1CCOCC1 (stereo partly drawn) [Example 44, (2S,3R,4S)-4-{L,N-[(2S)-3-[(2RS)-3-acetoxy-2-methoxypropyl]sulfonyl-2-(1-naphthylmethyl)propionyl]-(4-thiazolyl)alanyl}amino-5-cyclohexyl-1-morpholino-2,3-pentanediol], which IC50 is on record?
**A.** 1.8 nM

**Q.** Which IC50 does the source give for CCCC[C@H](NC(=O)[C@H](Cc1cccc2ccccc12)CS(=O)(=O)CC(COC(C)=O)=NO)C(=O)N[C@@H](CC1CCCCC1)[C@@H](O)[C@@H](O)CN1CCOCC1 [Example 42, (2S,3R,4S)-4-{L-N-[(2S)-3-(3-acetoxy-2-hydroxyiminopropyl)sulfonyl-2-(1-naphthylmethyl)propionyl]norleucyl}amino-5-cyclohexyl-1-morpholino-2,3-pentanediol] here?
**A.** 6.1 nM

**Q.** Which IC50 does the source give for CCCC[C@H](NC(=O)[C@@H](CSCC(COC(C)=O)OC(C)=O)Cc1cccc2ccccc12)C(=O)N[C@@H](CC1CCCCC1)[C@@H](O)[C@@H](O)CN1CCOCC1 (stereo partly drawn) [Example 7, (2S,3R,4S)-4-{L-N-[(2S)-3-[(2RS)-2,3,-diacetoxypropyl]thio-2-(1-naphthylmethyl)propionyl]norleucyl}amino-5-cyclohexyl-1-morpholino-2,3-pentanediol] here?
**A.** 2.8 nM

**Q.** How did the IC50 turn out when CCCC[C@H](NC(=O)[C@H](Cc1cccc2ccccc12)CS(=O)(=O)CC(O)COC(C)=O)C(=O)N[C@@H](CC1CCCCC1)[C@@H](O)[C@@H](O)CN1CCOCC1 (some centres unmarked) [Example 11] was run?
**A.** 6.3 nM

**Q.** CCCC[C@H](NC(=O)[C@H](Cc1cccc2ccccc12)CS(=O)(=O)CCOC(=O)C(C)(C)C)C(=O)N[C@@H](CC1CCCCC1)[C@@H](O)[C@@H](O)CN1CCOCC1 [Example 4] was tested. Which IC50 did it give?
**A.** 7.7 nM

**Q.** For CCCC[C@H](NC(=O)[C@H](Cc1cccc2ccccc12)CS(=O)(=O)CCOC(=O)OCC)C(=O)N[C@@H](CC1CCCCC1)[C@@H](O)[C@@H](O)CN1CCOCC1 [Example 5, (2S,3R,4S)-4-{L-N-[(2S)-3-(2-ethoxycarbonyloxyethyl)sulfonyl-2-(1-naphthylmethyl)propionyl]norleucyl}amino-5-cyclohexyl-1-morpholino-2,3-pentanediol], which IC50 is on record?
**A.** 5 nM

**Q.** CCCC[C@H](NC(=O)[C@H](Cc1cccc2ccccc12)CS(=O)(=O)CC(COC(C)=O)OC)C(=O)N[C@@H](CC1CCCCC1)[C@@H](O)[C@@H](O)CN1CCOCC1 (mixture of isomers) [Example 29, (2S,3R,4S)-4-{L-N-[(2S)-3-[(2RS)-3-acetoxy-2-methoxypropyl]sulfonyl-2-(1-naphthylmethyl)propionyl]norleucyl}amino-5-cyclohexyl-1-morpholino-2,3-pentanediol] was tested. Which IC50 did it give?
**A.** 0.76 nM

**Q.** Which IC50 does the source give for CCCC[C@H](NC(=O)[C@H](Cc1cccc2ccccc12)CS(=O)(=O)C1CCC(OC(C)=O)C1)C(=O)N[C@@H](CC1CCCCC1)[C@@H](O)[C@@H](O)CN1CCOCC1 (single isomer, unassigned) [Example 33 (having a low Rf value)] here?
**A.** 1.1 nM

**Q.** With CCCC[C@H](NC(=O)[C@@H](CSc1ccc(OC(C)=O)cc1)Cc1cccc2ccccc12)C(=O)N[C@@H](CC1CCCCC1)[C@@H](O)[C@@H](O)CN1CCOCC1 [Example 18, (2S,3R,4S)-4-{L-N-[(2S)-3-(4-acetoxyphenylthio)-2-(1-naphthylmethyl)propionyl]norleucyl}amino-5-cyclohexyl-1-morpholino-2,3-pentanediol] as the molecule, how does the IC50 read?
**A.** 9.2 nM
